In brackets after ≈: the same amount, converted by molar mass.

Series [1] relates to Mycobacterium tuberculosis. The experiment in a line: Antimycobacterial activity against Mycobacterium tuberculosis H37Rv assessed as reduction in bacterial growth incubated for 7 days by resazurin dye based assay. The class given is functional. The following applies: 168 h, time 7 day.
Series [2] is described as follows: Selectivity index, ratio of IC50 for mouse J774.A1 cells to MIC for Mycobacterium tuberculosis H37Rv. The class given is toxicity. The note with it: read-out: Selectivity Index.
Series [3] can be described thus: Cytotoxicity against mouse J774.A1 cells assessed as reduction in cell viability after 24 hrs by resazurin dye based assay. Type of series: toxicity.
The subject of series [4] is Mycobacterium tuberculosis. Nature of the series: Antimycobacterial activity against Mycobacterium tuberculosis H37Rv clinical isolates 3 assessed as reduction in bacterial growth incubated for 7 days by resazurin dye based assay. Type of series: functional. The following applies: 168 h, time 7 day. Background: Alamar Blue is a resazurin reagent that responds to reducing activity.

The subject of series [5] is Mycobacterium tuberculosis. The experiment in a line: Antimycobacterial activity against Mycobacterium tuberculosis H37Rv clinical isolates 4 assessed as reduction in bacterial growth incubated for 7 days by resazurin dye based assay. The following applies: 168 h, time 7 day. The class given is functional.
The test system of series [6] is Mycobacterium tuberculosis. The experiment in a line: Antimycobacterial activity against Mycobacterium tuberculosis H37Rv clinical isolates 2 assessed as reduction in bacterial growth incubated for 7 days by resazurin dye based assay. Type of series: functional. The note with it: 168 h, time 7 day.
The test system of series [7] is Mycobacterium tuberculosis. Nature of the series: Antimycobacterial activity against Mycobacterium tuberculosis H37Rv clinical isolates 1 assessed as reduction in bacterial growth incubated for 7 days by resazurin dye based assay. Type of series: functional. The note with it: 168 h, time 7 day.
The test system of series [8] is Mycobacterium tuberculosis. Nature of the series: Antimycobacterial activity against Mycobacterium tuberculosis H37Rv infected in mouse J774.A1 cells assessed as log reduction of bacterial growth at 1X MIC measured after 3 days by visual colony counting analysis. The class given is functional. The note with it: time 3 day.

A word on the MIC: it is the lowest concentration found to suppress growth. In the case of `c1ccc2c(CNC3CCCCCC3)c[nH]c2c1`, the MIC in series [1] was over 25 µg/mL.
For the molecule `Cc1cc(CNC2CCCCC2)c(C)n1-c1ccc(Cl)cc1`, the MIC in series [1] turned out to be 0.2 µg/mL (≈ 0.631 µM).
Regarding `Cc1cc(CNCC2CCCCC2)c(C)n1-c1ccc(Cl)cc1`, the MIC in series [1] stood at 0.3 µg/mL (≈ 0.907 µM).
Same read-out and setting: the result for `Cc1ccc2[nH]cc(CNC3CCCCC3)c2c1` reads over 25 µg/mL.
As to `CC(C)=CCC/C=C(\C)Cn1cc(CNC2CCCCCC2)c2ccc(Cl)cc21`, the MIC in series [1] amounted to 2.75 µg/mL (≈ 6.66 µM).
The same measure, in the same setting: under `Clc1ccc2[nH]cc(CNC3CCCCC3)c2c1` stands 16.3 µg/mL (≈ 62.1 µM); under `Clc1ccc2c(CNCc3ccccc3)c[nH]c2c1`, 22.8 µg/mL (≈ 84.3 µM).
In the case of `Clc1ccc2c(CNCc3ccccc3)cn(C3CCCCCCC3)c2c1`, the minimum inhibitory concentration (MIC) in series [1] was found to be 19.7 µg/mL (≈ 51.8 µM).
As for `Clc1ccc2c(CNC3CCCCCC3)c[nH]c2c1`, the minimal inhibitory concentration (MIC) in series [1] came to 17.1 µg/mL (≈ 61.9 µM).
Regarding `Cn1cc(CNC2CCCCC2)c2ccc(Cl)cc21`, in series [1], the MIC was over 25 µg/mL.
`Clc1ccc2c(CNC3CCCCC3)c[nH]c2c1`: the minimal inhibitory concentration (MIC) in series [1] is over 25 µg/mL.
The IC50 is the concentration at which inhibition is half-maximal. Turning to `CC(C)n1cc(CNCC2CCCCC2)c2ccc(Cl)cc21`, the minimum inhibitory concentration (MIC) in series [1] stood at 6.09 µg/mL (≈ 19.1 µM). Besides, the selectivity ratio in series [2] is 2.39. Moreover, the IC50 at 24 h in series [3] was 14.6 µg/mL (≈ 45.7 µM).
Turning to `CC(C)n1cc(CNC2CCCCCCC2)c2ccc(Cl)cc21`, in series [1], the MIC is 14 µg/mL (≈ 42.1 µM).
The same measure, in the same setting: under `Clc1ccc2c(CNCC3CCCCC3)c[nH]c2c1` stands 24.2 µg/mL (≈ 87.4 µM); under `c1ccc2c(CNC3CCCCCCC3)c[nH]c2c1`, over 25 µg/mL.
For `Cn1cc(CNCC2CCCCC2)c2ccc(Cl)cc21`, in series [1], the MIC stood at 19.1 µg/mL (≈ 65.6 µM).
For `CC(C)n1cc(CNC2CCCCC2)c2ccc(Cl)cc21`, the MIC in series [1] worked out at 23.9 µg/mL (≈ 78.3 µM).
For the molecule `CC(C)n1cc(CNC2CCCCCC2)c2ccc(Cl)cc21`, the MIC in series [1] was 16.3 µg/mL (≈ 51.2 µM).
Same read-out and setting: the result for `Cn1cc(CNCc2ccccc2)c2ccc(Cl)cc21` reads over 25 µg/mL; that for `Clc1ccc2c(CNCC3CCCCC3)cn(C3CCCCCCC3)c2c1`, 1.56 µg/mL (≈ 4.03 µM); that for `Cc1ccc2[nH]cc(CNC3CCCCCC3)c2c1`, 24.7 µg/mL (≈ 96.4 µM).
For `Clc1ccc2c(CNC3C4CC5CC(C4)CC3C5)c[nH]c2c1` (stereo not given), in series [1], the minimum inhibitory concentration (MIC) was determined as 6.07 µg/mL (≈ 19.3 µM). Besides, the selectivity ratio in series [2] was determined as 1.24. Also, the IC50 at 24 h in series [3] was 7.51 µg/mL (≈ 23.9 µM).
Regarding `Cn1cc(CNC2C3CC4CC(C3)CC2C4)c2ccc(Cl)cc21` (stereo not given), in series [1], the minimum inhibitory concentration (MIC) came out at 10.9 µg/mL (≈ 33.2 µM). The selectivity ratio in series [2] is 1.48. In series [3], the half-maximal inhibitory concentration (IC50) at 24 h amounted to 16.2 µg/mL (≈ 49.2 µM).
As for `c1ccc2c(CNCC3CCCCC3)c[nH]c2c1`, the minimum inhibitory concentration (MIC) in series [1] was over 25 µg/mL.
For the molecule `Clc1ccc2c(CNC3CCCCCCC3)c[nH]c2c1`, the MIC in series [1] is over 25 µg/mL.
As for `Cn1cc(CNC2CCCCCCC2)c2ccc(Cl)cc21`, the minimum inhibitory concentration (MIC) in series [1] is 23.2 µg/mL (≈ 76.3 µM).
`NCC[C@H](O)C(=O)N[C@@H]1C[C@H](N)[C@@H](O[C@H]2O[C@H](CN)[C@@H](O)[C@H](O)[C@H]2O)[C@H](O)[C@H]1O[C@H]1O[C@H](CO)[C@@H](O)[C@H](N)[C@H]1O` [AMIKACIN]: the minimum inhibitory concentration (MIC) in series [4] was over 25 µg/mL; in series [5], 0.14 µg/mL (≈ 0.239 µM); in series [6] it was 23.1 µg/mL (≈ 39.5 µM); in series [7], 0.32 µg/mL (≈ 0.546 µM).
On to `NNC(=O)c1ccncc1` [ISONIAZID], for which the minimum inhibitory concentration (MIC) in series [4] is over 25 µg/mL; in series [5], 0.25 µg/mL (≈ 1.82 µM); in series [6], over 25 µg/mL; in series [7], over 25 µg/mL.
For `COc1c(N2C[C@@H]3CCCN[C@@H]3C2)c(F)cc2c(=O)c(C(=O)O)cn(C3CC3)c12` [MOXIFLOXACIN], the Activity in series [8] came to 0.11 log10CFU.
`CO[C@H]1/C=C/O[C@@]2(C)Oc3c(C)c(O)c4c(O)c(c(/C=N/N5CCN(C)CC5)c(O)c4c3C2=O)NC(=O)/C(C)=C\C=C\[C@H](C)[C@H](O)[C@@H](C)[C@@H](O)[C@@H](C)[C@H](OC(C)=O)[C@@H]1C` [RIFAMPIN]: the minimal inhibitory concentration (MIC) is over 25 µg/mL in series [4], under 0.1 µg/mL in series [5], 0.65 µg/mL (≈ 0.79 µM) in series [6] and over 25 µg/mL in series [7].

For the origin of these results see ChEMBL document CHEMBL5038652, “Structural Rigidification of N-Aryl-pyrroles into Indoles Active against Intracellular and Drug-Resistant Mycobacteria” (ACS Med Chem Lett, 2022).
